In patent US11267794B2, “Benzothia(di)azepine compounds and their use as bile acid modulators” (Albireo AB, priority 2019, dated 2022):
Like-named read-outs stand apart in the source and are kept apart here.

Assays:
Caco-2 cells [1] = system: Caco-2 cells
Procedure: (§3) Caco-2 cells (Evotec) were seeded at a density of 70,000 cells/well in Millicell® 24-well cell culture insert plates and maintained in an incubator (37° C., 5% CO2, 95% RH) for 21 days with media change on alternate days.
(§4) Stock solutions (10 mM) of the test compounds, atenolol (low permeability marker), propranolol (high permeability marker) and digoxin (substrate for P-gp transport pathway) were prepared in dimethylsulfoxide (DMSO). An intermediate stock solution (1 mM) was prepared by diluting 10 μL of 10 mM master stock solution with 90 μL of neat DMSO. A working stock solution (10 μM) was prepared by diluting 50 μL of 1 mM with 4950 μL of FaSSIF buffer. Post addition of compounds to the FaSSIF, samples were subjected to sonication for 2 hours, and centrifuged at 4000 RPM for 30 minutes at 37° C. The 4 mL of resultant supernatant was directly used in the assay. The final DMSO concentration in the transport experiments was 1%.
(§5) On the day of assay, Caco-2 monolayers were washed twice with transport buffer (HBSS, pH 7.4) and pre-incubated for 30 min (37° C., 5% CO2, 95% RH) in an incubator. The electrical resistance of the monolayers was measured with a Millicell®—ERS system. Monolayers with trans-epithelial electrical resistance (TEER) values greater than 350 ohm·cm^2 were selected for the assay.
(§6) The assay was conducted in absorptive direction (A2B) and secretory (B2A) directions. Transport experiments were initiated by addition of transport assay buffer (FaSSIF buffer prepared in HBSS) consisting of compounds to the donor compartment (apical chamber A-B; basolateral chamber B-A) in duplicate (n=2) wells. Drug free HBSS buffer (pH 7.4) containing 1% bovine serum albumin (BSA) was introduced to the receiver (A-B-basolateral; B-A-Apical) compartments. The volumes of apical and basolateral compartments were 0.4 and 0.8 mL, respectively. After adding dosing solution, plates were incubated in an incubator for 120 minutes at 37° C. After 120 minutes, donor and receiver samples were collected and matrix matched (1:1, 30 μL study sample+30 μL blank buffer) with the opposite buffer. Dosing samples matrix matched (1:1, 30 μL study sample+30 μL blank buffer) with the opposite buffer. Samples were processed by adding acetonitrile containing internal standard (60 μL study sample+200 μL acetonitrile containing internal standard—Tolbutamide, 500 ng/mL). Samples were vortexed and centrifuged at 4000 rpm for 10 minutes. The obtained supernatant (100 μL) was diluted with 100 μL of water and transferred to fresh 96 well plates. The concentration of compounds in the samples was analyzed by liquid chromatography tandem mass spectrometry (LC-MS/MS) method using discovery grade bio-analytical method, as applicable.
(§7) The mean apparent permeability (Papp, ×10^−6 cm/sec) of the test compounds, atenolol, propranolol and digoxin were calculated as follows:

hIBAT = biological target: T1, hIBAT (Homo sapiens, UniProt Q12908); assay: IBAT (h/m) assay, 3H-taurocholic acid uptake in human IBAT-overexpressing cells; assay type: cell-based; conditions: 0.25 μM 3H-taurocholic acid and 5 μM cold taurocholic acid, 20 minutes
T1 construct: expressed in transfected cells; kept under Puromycin selection
T1 sequence (Q12908 1-348): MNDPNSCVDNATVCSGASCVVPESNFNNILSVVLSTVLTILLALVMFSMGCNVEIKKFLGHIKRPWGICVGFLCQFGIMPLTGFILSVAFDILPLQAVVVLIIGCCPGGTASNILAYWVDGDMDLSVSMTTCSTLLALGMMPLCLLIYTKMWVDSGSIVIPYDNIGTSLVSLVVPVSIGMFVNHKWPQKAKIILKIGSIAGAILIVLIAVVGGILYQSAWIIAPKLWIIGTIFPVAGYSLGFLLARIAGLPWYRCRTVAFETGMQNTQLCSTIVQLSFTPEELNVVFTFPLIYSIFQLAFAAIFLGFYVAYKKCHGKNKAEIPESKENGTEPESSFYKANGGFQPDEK
Procedure: 10,000 cells (Human or Mouse IBAT-overexpressing cells) were seeded in 96-wells plate (Corning CLS3809) in 200 μL MEM-alpha medium (Gibco 12571-063) supplemented with 10% FBS (Gibco 10438026) containing Puromycin (Gibco A1113803) (10 μg/mL) and incubated at 37° C. in 5% CO2 for 48 hours. After incubation, media was decanted from the wells and cells were washed two times with 300 μL of basal MEM-alpha medium (FBS-free). After decanting basal MEM-alpha medium each time, plates were tapped against paper towel to ensure maximum removal of residual media. Test inhibitor dilutions (highest test concentration being 10 μM, 3-fold serial dilution, 10 points) prepared in DMSO (Sigma D2650) were added in incubation mix (maintaining 0.2% final DMSO concentration) containing 0.25 μM 3H-taurocholic acid (ARC ART-1368) and 5 μM of cold taurocholic acid (Sigma T4009). 50 μL of incubation mix containing test inhibitors was then added to the wells (in duplicate) and the plates were incubated for 20 minutes in a CO2 incubator at 37° C. After incubation, the reaction was stopped by keeping the plates on ice water mix for 2-3 minutes and then the incubation mix was aspirated completely from the wells. The wells were washed two times with 250 μL of chilled unlabelled 1 mM taurocholic acid dissolved in HEPES (Gibco 15630080)-buffered (10 mM) HBSS (Gibco 14175079) (pH 7.4). The plates were tapped against a paper towel after every wash to ensure maximum removal of blocking buffer.
(§1) 100 μL of MicroScint-20 (PerkinElmer 6013621) was added to the wells and kept overnight at room temperature before reading the plates in TopCount NXT™ Microplate Scintillation and Luminescence Counter from PerkinElmer under 3H Test protocol (set at 120 seconds reading time per well).
(§2) All test compounds were provided in powder form at room temperature. 10 mM DMSO stocks of the test compounds were prepared, aliquoted and stored at −20° C. From the 10 mM DMSO stock of the compounds, a 3-fold serial dilution in DMSO was prepared to get a total of 10 dilutions of the test compounds. 0.5 μL of this dilution in DMSO was added to 250 μL of FBS-free basal media containing 3H-taurocholic acid and cold taurocholic acid to prepare the incubation mixture.

[2] = parameters: species or system mice (CD1); conditions: mouse, in vivo
Procedure: Male mice (C57BL/6 or CD1) or Wistar rats of 8-9 weeks old were used. For each test compound, two groups of 3 animals each were used. One group was administered a single intravenous dose of 1 mg/kg (vehicle 100% DMSO) through the tail vein and the other group was administered a single oral dose of 10 mg/kg through gavage needle. The group that was administered an oral dose was fasted overnight. Blood samples were collected after 0.083, 0.25, 0.5, 1, 2, 4, 6, 8 and 24 hours following intravenous administration, and after 0.25, 0.5, 1, 2, 4, 6, 8 and 24 hours following oral administration. Blood samples were taken from saphenous vein. 0.2% EDTA was used as the anticoagulant. The samples were analyzed by a discovery grade bioanalytical method developed for the estimation of test compound in plasma, using an LC-MS/MS system.

hLBAT = biological target: T2, hLBAT (Homo sapiens, UniProt Q14973); assay: LBAT (h/m) assay, 3H-taurocholic acid uptake in human LBAT-overexpressing cells; assay type: cell-based; conditions: 0.3 μM 3H-taurocholic acid and 7.5 μM cold taurocholic acid, 20 minutes
T2 construct: expressed in transfected cells; kept under Geneticin selection
T2 sequence (Q14973 1-349): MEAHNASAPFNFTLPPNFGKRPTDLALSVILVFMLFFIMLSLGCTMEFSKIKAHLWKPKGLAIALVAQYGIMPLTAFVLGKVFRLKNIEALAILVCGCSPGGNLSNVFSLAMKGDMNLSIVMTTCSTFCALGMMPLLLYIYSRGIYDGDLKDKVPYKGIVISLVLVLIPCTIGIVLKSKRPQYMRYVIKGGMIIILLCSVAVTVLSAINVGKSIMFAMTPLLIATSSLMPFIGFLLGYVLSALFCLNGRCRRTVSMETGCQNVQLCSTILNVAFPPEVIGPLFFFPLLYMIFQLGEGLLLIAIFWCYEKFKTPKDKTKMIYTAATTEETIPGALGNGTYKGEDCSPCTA
Procedure: 20,000 cells (Human or Mouse LBAT-overexpressing cells) were seeded in 96-wells plate (Corning CLS3809) in 100 μL MEM-alpha medium (Gibco 12571-063) supplemented with 10% FBS (Gibco 10438026) containing Geneticin (Gibco 10131-027) (1 mg/mL) and incubated at 37° C. in 5% CO2 for 24 hours. After incubation, media was decanted from the wells and cells were washed two times with 300 μL of basal MEM-alpha medium (FBS-free). After decanting basal MEM-alpha medium each time, plates were tapped against paper towel to ensure maximum removal of residual media. For human LBAT, incubation mix was prepared by adding test inhibitor dilutions (3-fold serial dilution in DMSO (Sigma D2650), 10 points) in MEM-alpha (without FBS) containing 0.3 μM 3H-taurocholic acid (ARC ART-1368) and 7.5 μM cold taurocholic acid (Sigma T4009) (maintaining 0.2% final DMSO concentration). For mouse LBAT, incubation mix was prepared by adding test inhibitor dilutions (3-fold serial dilution in DMSO, 10 points) in MEM-alpha (without FBS) containing 0.3 μM 3H-taurocholic acid and 25 μM cold taurocholic acid maintaining 0.2% final DMSO concentration). 50 μL of incubation mix containing test inhibitors was then added to the wells (in duplicate) and the plates were incubated for 20 minutes in a CO2 incubator at 37° C. After incubation, the reaction was stopped by keeping the plates on ice water mix for 2-3 minutes and then the incubation mix was aspirated completely from the wells. The wells were washed two times with 250 μL of chilled unlabelled 1 mM taurocholic acid dissolved in HEPES (Gibco 15630080)-buffered (10 mM) HBSS (Gibco 14175079) (pH 7.4). The plates were tapped against a paper towel after every wash to ensure maximum removal of blocking buffer.
as §1, with “well, with normal plate orientation).” for “well).”
as §2

[3] = Bidirectional permeability assay (Caco-2 cells); conditions: human, Caco-2
Procedure: as §3, §4, §5, §6, §7

Caco-2 cells [4] = assay: Bidirectional permeability assay (Caco-2 cells); conditions: FaSSIF buffer, 120 minutes at 37° C.; for Permeability (Caco-2) Papp A2B: absorptive direction (A2B); for Permeability (Caco-2) Papp B2A: secretory direction (B2A)
Procedure: as §3, §4, §5, §6, §7

Compound: (S)-(E)-3-((3-butyl-3-ethyl-5-(4-fluorophenyl)-7-(methylthio)-1,1-dioxido-2,3,4,5-tetrahydro-1,5-benzothiazepin-8-yl)oxy)acrylic acid and (R)-(E)-3-((3-butyl-3-ethyl-5-(4-fluorophenyl)-7-(methylthio)-1,1-dioxido-2,3,4,5 tetrahydro-1,5-benzothiazepin-8-yl)oxy)acrylic acid [Example 10]
- Permeability (Caco-2) Papp A2B (Caco-2 cells [1]): 10 ×10⁻⁶ cm/s
- Permeability (Caco-2) Papp B2A (Caco-2 cells [1]): 5.4 ×10⁻⁶ cm/s
- IC50 (hIBAT): 4 nM
- Bioavailability (%) [2]: 41 (CD1) %
- IC50 (hLBAT): 113 nM

Compound: CCCCC1(CCCC)CN(c2ccc(F)cc2)c2cc(SC)c(O/C=C(\F)C(=O)O)cc2S(=O)(=O)C1 [Example 1, (Z)-3-((3,3-dibutyl-5-(4-fluorophenyl)-7-(methylthio)-1,1-dioxido-2,3,4,5-tetrahydro-1,5-benzothiazepin-8-yl)oxy)-2-fluoroacrylic acid]
- IC50 (hIBAT): 21 nM
- Papp A→B at 120 min, 10 µM [3]: 0.9 ×10⁻⁶ cm/s
- Papp B→A at 120 min, 10 µM [3]: 0.9 ×10⁻⁶ cm/s
- IC50 (hLBAT): 49 nM

Compound: CCCCC1(CC)CN(c2ccc(F)cc2)c2cc(SC)c(O/C=C(\F)C(=O)O)cc2S(=O)(=O)C1 (stereo not shown) [Example 5, (Z)-3-((3-butyl-3-ethyl-5-(4-fluorophenyl)-7-(methylthio)-1,1-dioxido-2,3,4,5-tetrahydro-1,5-benzothiazepin-8-yl)oxy)-2-fluoroacrylic acid]
- IC50 (hIBAT): 5 nM
- Papp A→B at 120 min, 10 µM [3]: 2.3 ×10⁻⁶ cm/s
- Papp B→A at 120 min, 10 µM [3]: 2 ×10⁻⁶ cm/s
- IC50 (hLBAT): 14 nM

Compound: (S)—(Z)-3-((3-butyl-7-(dimethylamino)-3-ethyl-1,1-dioxido-5-phenyl-2,3,4,5-tetrahydro-1,2,5-benzothiadiazepin-8-yl)oxy)-2-fluoroacrylic acid and (R)—(Z)-3-((3-butyl-7-(dimethylamino)-3-ethyl-1,1-dioxido-5-phenyl-2,3,4,5-tetrahydro-1,2,5-benzothiadiazepin-8-yl)oxy)-2-fluoroacrylic acid [Example 3]
- IC50 (hIBAT): 8 nM
- Permeability (Caco-2) Papp A2B (Caco-2 cells [4]): 1.8 ×10⁻⁶ cm/s
- Permeability (Caco-2) Papp B2A (Caco-2 cells [4]): 2.2 ×10⁻⁶ cm/s
- IC50 (hLBAT): 427 nM

Compound: (S)—(Z)-3-((3-butyl-3-ethyl-5-(4-fluorophenyl)-7-(methylthio)-1,1-dioxido-2,3,4,5-tetrahydro-1,5-benzothiazepin-8-yl)oxy)-2-fluoroacrylic acid and (R)—(Z)-3-((3-butyl-3-ethyl-5-(4-fluorophenyl)-7-(methylthio)-1,1-dioxido-2,3,4,5-tetrahydro-1,5-benzothiazepin-8-yl)oxy)-2-fluoroacrylic acid [Example 7]
- IC50 (hIBAT): 5 nM
- Permeability (Caco-2) Papp A2B (Caco-2 cells [4]): 5.7 ×10⁻⁶ cm/s
- Permeability (Caco-2) Papp B2A (Caco-2 cells [4]): 4.1 ×10⁻⁶ cm/s
- IC50 (hLBAT): 14 nM

Compound: CCCC[C@@]1(CC)CN(c2ccccc2)c2cc(N(C)C)c(O/C=C/C(=O)O)cc2S(=O)(=O)N1.CCCC[C@]1(CC)CN(c2ccccc2)c2cc(N(C)C)c(O/C=C/C(=O)O)cc2S(=O)(=O)N1 (mixture of isomers) [Example 14, (S)-(E)-3-((3-butyl-7-(dimethylamino)-3-ethyl-1,1-dioxido-5-phenyl-2,3,4,5-tetrahydro-1,2,5-benzothiadiazepin-8-yl)oxy)acrylic acid and (R)-(E)-3-((3-butyl-7-(dimethylamino)-3-ethyl-1,1-dioxido-5-phenyl-2,3,4,5-tetrahydro-1,2,5-benzothiadiazepin-8-yl)oxy)acrylic acid]
- IC50 (hIBAT): 6 nM
- Permeability (Caco-2) Papp A2B (Caco-2 cells [4]): 11 ×10⁻⁶ cm/s
- Permeability (Caco-2) Papp B2A (Caco-2 cells [4]): 20 ×10⁻⁶ cm/s

Compound: CCCCC1(CC)CN(c2ccccc2)c2cc(N(C)C)c(O/C=C(\F)C(=O)O)cc2S(=O)(=O)N1 (stereo not shown) [Example 2, (Z)-3-((3-butyl-7-(dimethylamino)-3-ethyl-1,1-dioxido-5-phenyl-2,3,4,5-tetrahydro-1,2,5-benzothiadiazepin-8-yl)oxy)-2-fluoroacrylic acid]
- IC50 (hIBAT): 13 nM
- Papp A→B at 120 min, 10 µM [3]: 1.4 ×10⁻⁶ cm/s
- Papp B→A at 120 min, 10 µM [3]: 2.4 ×10⁻⁶ cm/s
- IC50 (hLBAT): 124 nM
